# Measurements taken from US20250041282A1, “METHOD FOR TREATING INFLAMMATORY PULMONARY DISEASE” (FU JEN CATHOLIC UNIVERSITY, priority 2021, published 2025).
# What was measured:
# [1] = test system: RAW264.7 macrophages; assay: Morphology of LPS-stimulated macrophages; type: cell-based, mouse; settings: LPS 24 hours; FIG. 1C
# Procedure: To compare the anti-inflammatory effects of the newly synthesized compound FJU-C28 (FIG. 1A) on LPS-activated murine macrophages to those of the parent compound FJU-C4, RAW264.7 macrophages were pretreated with various concentrations of FJU-Cs for 30 min and then stimulated with or without LPS for 24 hours. […] LPS stimulation changed the shape of macrophages, resulting in dendritic-like cells with multiple vacuoles in the cytoplasm, whereas the untreated cells were round and small. […] This effect was consistent with the findings of the cytotoxicity assay. […] In addition, FJU-C28 suppressed the expression of iNOS and COX2 at doses higher than 5 μM (FIG. 1D).
# [2] = test system: STAT3, smad3, TGF1β-induced alpha-SMA and fibronectin; assay: Immunoblot comparison of FJU-C28 with Pirfenidone; type: cell-based; settings: versus Pirfenidone; FIGS. 10A-10C
# Procedure: Further, a comparison between FJU-C28 and FDA-approved drug Pirfenidone for effects on STAT3 inhibition, smad3 activation, TGF1β-induced alpha-SMA and fibronectin expression are conducted. The results are shown in the quantitative immunoblot data in FIGS. 10A, 10B and 10C.
# [3] = test system: RAW264.7 macrophages; assay: Quantitative real-time PCR of inflammatory mediators and cytokines; type: cell-based, mouse; settings: LPS-induced
# Procedure: RNA was isolated from cells using TRIzol reagent (Invitrogen, Carlsbad, CA, USA) as previously described.^32 The concentration of the isolated RNA was measured using an Epoch microplate spectrophotometer (BioTek, Winooski, VT, USA). One microgram of RNA was reverse-transcribed to cDNA with random primers and an MMLV RT kit (Epicenter Biotechnologies, Madison, WI, USA). The mixture (2 μl) was added to PCR reagents to measure the target mRNA level with specific primers (Table 1). All real-time PCRs were performed in a volume of 20 μl containing 10 μl of Real-time PCR SYBR Green master mix (Toyobo, Osaka, Japan) using a PikoReal 96 Real-Time PCR System (Thermo Fisher Scientific Inc.), according to our previously described method.^33 The expression of β-actin was used as an internal control for RNA quantification.
# [4] = test system: RAW264.7 macrophages; assay: Western blotting of LPS-stimulated macrophage lysates; type: cell-based, mouse
# From the text: In brief, cell lysate was separated by 10% SDS-PAGE and transferred to a PVDF membrane (Hybond™-P, Amersham, Piscataway, NJ, USA). The blots were probed with anti-p38 (Catalogue Number: 8690P), anti-p-p38 (Thr180/Tyr182; Catalogue Number: 4511P), anti-ERK44/42 (Catalogue Number: 4695P), anti-p-ERK44/42 (Thr202/Tyr204; Catalogue Number: 4370P), anti-JNK (Catalogue Number: 9258P), anti-p-JNK (Thr183/Tyr185; Catalogue Number: 4668P), anti-p65 (Catalogue Number: 8242S), anti-STAT3 (Catalogue Number: 12640S), anti-p-STAT3 (Tyr705; Catalogue Number: 9145S) and anti-RANTES (Catalogue Number: 2989S) antibodies were provided by Cell Signaling Technology, Inc. (Danvers, MA, USA). Anti-Lamin A/C (Catalogue Number: 101127) antibodies were obtained from GeneTex, Inc. (San Antonio, TX, USA). Anti-β-Actin (Catalogue Number: SC-47778) and anti-COX2 (Catalogue Number: SC-1746) antibody was obtained from Santa Cruz Biotechnology, Inc. (Dallas, Texas, USA). The anti-iNOS (Catalog Number: 610329) antibody was obtained from BD transduction Lab. (San Jose, CA, USA). Bound antibodies were visualized by […] staining (Western Lighting Plus ECL; PerkinElmer, Wellesley, MA, USA) with autoradiography using FUJI Medical X-ray film (Fuji Corporation, Kofu, Yamanashi, Japan) or a MultiGel-21 multifunctional imaging system (TOPBIO, New Taipei, Taiwan). The intensity of the western blot bands was quantified by ImageJ software. The quantitative immunoblot data were normalized to the internal control protein and are expressed as the relative ratio of the treatment group to the control. The data represent the mean±S.D. of at least three independent experiments.
# [5] = test system: RAW264.7 macrophages; assay: ELISA of cytokines in cell culture media; type: cell-based, mouse
# Procedure: RANTES (RayBiotech), IL-1β and IL-6 (eBioscience, San Diego, CA, USA) concentrations in cell culture media and mouse serum were measured using ELISA kits according to the manufacturer's instructions. The plates were measured at […] using an Epoch microplate spectrophotometer (BioTek Instruments, Winooski, VT, USA). The concentrations of RANTES, IL-1β and IL-6 in the samples were determined by standard curves.
# For identifying the potential signaling pathways which regulate the secretion of IL-6 and RANTES induced by LPS stimulation, RAW264.7 macrophages were pretreated with various kinase inhibitors for 30 min and then stimulated with/without 100 ng/ml LPS for 24 h; the cell culture media was harvested for ELISA assay. […] (FIG. 6A). To investigate whether FJU-C28 could mediate the transcriptional activity of NF-κB (p65), the translocation of NF-κB p65 was examined in LPS-stimulated macrophages.
# [6] = concentration less than 10 μM, FIG. 2
# [7] = LPS-stimulated, at doses higher than 5 μM, FIG. 1D
# [8] = LPS-treated macrophages, cell culture media, FIG. 4C/4D
compound,measurement,setting,value
C=CCC1CC(Sc2ccccc2)=CC(=O)N1C(=O)C=C (centres unmarked) [FJU-C28],LPS-induced changes in macrophage morphology,[1],dramatically inhibited these changes in morphology in a concentration-dependent manner
same,inhibition of STAT3,[2],more significant than that of Pirfenidone
same,inhibition of TGF1β-induced alpha-SMA expression,[2],more significant than that of Pirfenidone
same,inhibition of TGF1β-induced fibronectin expression,[2],more significant than that of Pirfenidone
same,inhibition of smad3,[2],more significant than that of Pirfenidone
same,mRNA level of COX2,[3]; FIG. 2,downregulated in a concentration-dependent manner
same,mRNA level of iNOS,[3]; FIG. 2,downregulated in a concentration-dependent manner
same,mRNA level of IL-1β,[3]; [6],concentration-dependently decreased
same,mRNA level of IL-6,[3]; [6],concentration-dependently decreased
same,gene expression of IL-6,[3]; dose higher than 5 μM,noticeably inhibited
same,gene expression of iNOS,[3]; dose higher than 5 μM,noticeably inhibited
same,LPS-induced level of p-ERK,"[4]; 5 μM and 10 μM, FIG. 6A",dramatically inhibited
same,LPS-induced level of p-JNK,"[4]; 5 μM and 10 μM, FIG. 6A",dramatically inhibited
same,LPS-induced level of p-p38,"[4]; 5 μM and 10 μM, FIG. 6A",dramatically inhibited
same,levels of STAT3 protein,[4]; FIG. 8,reducing the levels of STAT3 protein
same,LPS-induced phosphorylation of STAT3,"[4]; LPS-induced RAW264.7, FIG. 6D",concentration-dependently inhibited
same,expression of COX2 (immunoblot),[4]; [7],suppressed
same,expression of iNOS (immunoblot),[4]; [7],suppressed
same,NF-κB (p65) in nuclear extract (translocation),"[4]; LPS-stimulated, increasing dose, FIG. 6C",nuclear NF-κB (p65) was decreased
same,LPS-induced protein expression of RANTES (western blot),"[4]; at 6 hours, FIG. 4B",dramatically suppressed
same,production of IL-1β (ELISA),[5]; [8],dramatically reduced
same,production of IL-6 (ELISA),[5]; [8],dramatically reduced
same,LPS-induced expression of RANTES (ELISA),"[5]; at 6 hours or 24 hours, FIG. 4A",dramatically suppressed
